Assay results reported in patent publication US20220125987A1, “WOUND CLOSURE DEVICES COMPRISING PROTOCATECHUIC ACID” (priority 2020, published 2022).
Entries after “also recorded” stand apart in the source; their conditions may differ.

Experiments:
Pseudomonas aeruginosa [1] = assay: Kirby-Bauer disc diffusion antimicrobial susceptibility testing; format: cell-based
[2] = test system: P. aeruginosa (ACTA 27853); assay: Mouse tape-stripped skin wound infection model (Example 3); format: in vivo; conditions: for bacterial burden: 48 and 96 hours
Method: Mice had back skin tape stripped and the stripped site (wound) was infected with P. aeruginosa (ACTA 27853). The test reagents were applied topically in an aqueous solution on the stripped site at two hours and daily on day 1, 2 and 3.
C3G, an anthocyanin and its main metabolite PCA were formulated and tested at several doses. The aqueous carrier was water. The C3G formulation included 100 mM and 200 mM dose concentrations and the PCA formulation included 25 and 50 mM dose concentrations.

Pseudomonas aeruginosa [3] = assay: Bacterial kill in stripped skin wound of a rodent; format: in vivo; conditions: for bactericidal effect on stripped skin wound: topical at various calculated doses, in 48 to 96 hours; for kill of Pseudomonas aeruginosa: topical on stripped skin wound, in 48 hours, both reagents and dose
From the text: Experimental Groups: There were 4 experimental groups. […] Treatment varied by reagent and dosage.

[4] = test system: stripped skin wound infected with Pseudomonas aeruginosa (ATCC 27853); assay: Histology of stripped, infected and treated mouse skin wound (Example 6); conditions: 48 hours; for tissue repair as evidenced by histology: two different doses
IGF-1, TGF-β, EGF = assay: Local growth factor levels in normal (unstripped, uninfected) mouse skin (Example 4); format: in vivo, mice; conditions: 100 μM topical, normal rodent skin
Method: Mice were shaved but unstrapped and uninfected (normal rodent skin). The test reagents were applied topically in an aqueous solution on the unstripped site at two hours and daily on day 1, 2 and 3. Testing reagents consisted of […] and PCA formulated at one dose, 100 μM in an aqueous solution.

P. acnes = assay: Kirby-Bauer disc diffusion antimicrobial susceptibility testing; format: cell-based
[5] = test system: P. aeruginosa (ACTA 9027); assay: Mouse tape-stripped skin wound infection model (Example 2); format: in vivo; conditions: day five; for bacterial burden: topical aqueous 50, 100, 200 mM at two hours and daily for four days, none statistically significant; for most effective dose concentration: topical aqueous
Pseudomonas = conditions: cited from earlier work
[6] = rat, in vivo; cited from earlier work
[7] = test system: Staphylococcus aureus ATCC 33591 (MRSA); assay: Kirby-Bauer disc diffusion antimicrobial susceptibility testing; format: cell-based
MRSA = conditions: cited from earlier work
IGF-1, TGE-β, EGF = assay: Growth factor levels by ELISA in stripped, infected mouse skin (Example 5); format: in vivo, mice
Method: Four different conditions were used: mice had back skin tape stripped and the stripped site (wound) was infected with P. aeruginosa; mice had back skin stripped and were not infected, mice had taped stripped, infected and treated with PCA, mice were tape stripped, uninfected, and treated with PCA. When used, the PCA test reagent was applied topically in an aqueous solution on the stripped site at two hours and 24 hours.
The testing reagents consisted of and PCA formulated at one dose, 25 mM, in an aqueous solution. Levels of IGF-1, TGE-β, and EGF levels in the skin tissue at 48 hours were measured by ELISA. There were two control groups: the stripped skin and the stripped skin and infected.

[8] = human skin; cited from earlier work
[9] = after ingestion; cited from earlier work
Candida albicans = assay: Kirby-Bauer disc diffusion antimicrobial susceptibility testing; format: cell-based
From the text: This example describes the method for testing the antimicrobial susceptibility of anthocyanins, anthocyanidins, or metabolites and compounds thereof. The Kirby-Bauer method of disc diffusion was used for testing, following a standard set of procedures recommended by the NCCLS. In this methodology, a set of discs saturated with either testing compounds or a control was placed on inoculated agar plates. The plates were inoculated with organisms including C. difficile, P. acnes, C. prefringens, L. casei, C. albicans, E. coli, ATTC 8739 and ATCC 43895, S. aureus, S. mutans, S. pyogenes, P. aeruginosa and K. pneumonia. The control sample was amoxicillin, an antimicrobial with very effective broad-spectrum antibiotic properties. Samples included delphinidin, pelargonidin, cyanidin CI, 28% cyanindin-3-glucoside (C3G), protocatechuic acid (PCA) and 2,4,6 Trihydroxybenzaldehyde (2,4,6 THBA).
After 18, 24, or 48 hours of incubation, depending upon the microorganism, each plate was examined. The diameters of the zones of complete inhibition were measured, including the diameter of the disc. Zones were measured to the nearest millimeter, using sliding calipers. The size of the zones of inhibition was interpreted by referring to NCCLS standard. […]

[10] = female, rat, in vivo
[11] = all tested doses (PCA 25, 50 mM; C3G 100, 200 mM)

SMILES: CC1(C)S[C@@H]2[C@H](NC(=O)[C@H](N)c3ccc(O)cc3)C(=O)N2[C@H]1C(=O)O [Amoxicillin, amoxicillin, reference compound]
- activity against Pseudomonas aeruginosa (Pseudomonas aeruginosa [1]): no effect

SMILES: OC[C@H]1O[C@@H](Oc2cc3c(O)cc(O)cc3[o+]c2-c2ccc(O)c(O)c2)[C@H](O)[C@@H](O)[C@@H]1O [C3G, Cyanidin 3-glucoside]
- bacterial burden ([2]; 100 mM topical): significantly reduced the bacterial burden
- bacterial burden ([2]; 200 mM topical): significantly reduced the bacterial burden
- bacterial burden [2, 11]: decreased the bacterial burden
- bactericidal effect on stripped skin wound (Pseudomonas aeruginosa [3]): bactericidal
- kill of Pseudomonas aeruginosa (Pseudomonas aeruginosa [3]): 10,000 fold
- dermal layer thickness ([4]; C3G 100 mM): thicker
- hair follicles, cellular lining ([4]; C3G 100 mM): single and double cellular lining
- inflammation ([4]; C3G 100 mM): inflammation in the dermis and muscular layer and below
- surface cellularity ([4]; C3G 100 mM): multiple cellular covering of the surface
- vascularity ([4]; C3G 100 mM): prominent
- dermal layer thickness ([4]; C3G 200 mM): thickened
- hair follicles, cellular lining ([4]; C3G 200 mM): single and double cellular lining
- inflammation ([4]; C3G 200 mM): inflammation in the dermis and muscular layer
- surface cellularity ([4]; C3G 200 mM): multiple cells thick
- vascularity ([4]; C3G 200 mM): increased
- tissue repair as evidenced by histology [4]: stimulated tissue repair
- all three local growth hormones (IGF-1, TGF-β, EGF) (IGF-1, TGF-β, EGF): decrease of all three local growth hormones
- activity against P. acnes (P. acnes): bactericidal
- bacterial burden [5]: decreased the bacterial burden
- most effective dose concentration [5]: 100 mM

SMILES: O=C(O)c1ccc(O)c(O)c1 [PCA, 3,4 dihydroxybenzoic acid]
- biofilm destruction, Pseudomonas (Pseudomonas): biofilm destroyer
- statistical significance of bacterial burden reduction ([2]; 25 mM topical): statistically significant at 48 hours
- bacterial burden ([2]; 25 mM topical): reduced the bacterial burden at both time periods
- bacterial burden [2, 11]: decreased the bacterial burden
- toxicity [6]: greater than 5000 mg/kg body weight
- bactericidal effect on stripped skin wound (Pseudomonas aeruginosa [3]): bactericidal
- kill of Pseudomonas aeruginosa (Pseudomonas aeruginosa [3]): 10,000 fold
- collagen between epidermis and dermis ([4]; PCA 25 mM): collagen proliferation between the epidermis and dermis; also recorded: collagen layer formation between the epidermis and dermis
- dermal layer thickness ([4]; PCA 25 mM): thickened
- hair follicles, cellular lining ([4]; PCA 25 mM): prominent with multiple cellular lining
- inflammation ([4]; PCA 25 mM): abundant inflammation
- surface cellularity ([4]; PCA 25 mM): abundant and multiple cell layers
- vascularity ([4]; PCA 25 mM): moderate vascularity, but less than that seen in infected untreated group
- dermal layer thickness ([4]; PCA 50 mM): thicker
- hair follicles, cellular lining ([4]; PCA 50 mM): double layer of cells
- inflammation ([4]; PCA 50 mM): increased in the dermis and below the muscle layer
- surface cellularity ([4]; PCA 50 mM): covered with multiple layers of cells
- vascularity ([4]; PCA 50 mM): increased vascularity
- tissue repair as evidenced by histology [4]: stimulated tissue repair
- activity against Staphylococcus aureus ATCC 33591 (MRSA) [7]: effective
- biofilm destruction, MRSA (MRSA): biofilm destroyer
- IGF-1 production (IGF-1, TGE-β, EGF; 25 mM topical at 2 and 24 hours, stripped and infected skin, 48 hours): optimizes the IGF-1 production
- local growth hormones (IGF-1, TGE-β, EGF; 25 mM topical, stripped and infected skin): optimizes the local growth hormones
- EGF response level (IGF-1, TGE-β, EGF; 25 mM topical, stripped, infected and treated wound vs other groups, 48 hours): lowest
- skin irritation [8]: no skin irritation
- duration of metabolism prior to excretion in the urine and feces [9]: eight
- susceptibility of Candida albicans (Candida albicans): susceptible
- activity against P. acnes (P. acnes): bactericidal
- human relative dose to exceed safety [10]: 350,000 milligrams per day
- activity against Pseudomonas aeruginosa (Pseudomonas aeruginosa [1]): some effectiveness
- bacterial burden [5]: decreased the bacterial burden
- most effective dose concentration [5]: 50 mM
